For data set [1], the target named is GABAA receptors (benzodiazepine site, Ro15-1788 binding sites), rat cortex. As to the kind of experiment: Ro15-1788 competition binding assay, rat cortex membranes. The settings on record: displacement of 3H Ro15-1788, read-out: Ro15-1788 binding, K1. The method, then: Rat cortex membranes are prepared by homogenizing one or two previously frozen rat cortexes in 30 ml of 25 mM Tris Buffer, pH 7.4. The homogenate is centrifuged for 10 minutes at 500× g. The supernatant is then transferred to a clean centrifuge tube and the pellet discarded. The supernatant is spun for 20 minutes at 48,000× g. The supernatant from this spin is discarded and the pellet is resuspended in 30 ml of 25 mM Tris Buffer, pH 7.4 and centrifuged for an additional 10 minutes at 48,000× g. The supernatant from the final spin is discarded and the membrane pellet is resuspended in 100 mL Tris buffer per gram of cortex used.
The cortex membrane preparation is used to perform either percent inhibition or competition binding assays. In order to determine percent inhibition 300 μl of resuspended membranes are mixed with 200 μl ^3H labeled Ro15-1788 (final concentration 2.5 nM) and incubated for 1 hour on ice in the presence of 2 μl test compound in DMSO (final concentration 4 μM). Membranes are harvested onto untreated filtermats. The filtermats are dried and the ^3H Ro15-1788 signal is counted in a scintillation counter. Nonspecific binding is determined by displacement of ^3H Ro15-1788 with 10 μM Diazepam (RBI) or any other compound known to bind tightly at the benzodiazepine site.
K1 values are calculated according to the Cheng-Prussof equation.
In general terms: Displacement assays read how much labelled ligand stays bound in the presence of the test substance.

The subject of data set [2] is rats. Put plainly: spontaneous locomotor activity. The settings on record: rat. The class given is in vivo. As to the method: Spontaneous locomotor activity can be measured to determine sedative effects of compounds. Locomotor activity is measured in eight computerized Digiscan-16 Animal Activity Monitors (Omnitech Electronics, Columbus, Ohio) equipped with 48 infrared photocell emitters and detectors. Each box is constructed of Plexiglas sides and floor. Horizontal activity is detected by a set of horizontal sensors on the front to back walls and a second group of sensors on the side to side walls located 5 cm above the cage floor. Vertical activity is detected by a third set of sensors on the side to side walls located 13.5 cm above the cage floor. The rats are tested in the presence of white noise (62 dB) and red St light (60 watt).
Test compound is administered IV in a 50% PEG vehicle 5 minutes prior to the test session. A range of compound doses is typically used and 6 to 8 rats are tested at each dose. The animal's movement time, vertical activity, and total distance traveled are tracked over a 15 minute test session. A sedative, or hypnotic, effect in the spontaneous locomotor activity model is defined by a decrease in any two of these three measures relative to animals given vehicle alone.

In data set [3] the test system is rats. Put plainly: step-down passive avoidance. Type of data set: in vivo. The settings on record: rat; for cognitive model (step-down passive avoidance), minimal efficacious dose: cognitive enhancement. From the text: In step-down passive avoidance a rat is placed on a platform located in the center of an electrified grid floor that is contained within a large (45 cm×45 cm×50 cm) white translucent Plexiglas® enclosure. The natural inclination of the rat is to step off the platform and investigate its surroundings. […] Each time the animal steps off the platform it receives a mild foot shock of 2 mAmps×6 sec. Following each shock the animal is removed from the box, placed in its cage for a one minute inter-trial interval, and then returned to the platform. The latency to step down on each trial, the number of trials taken to reach criterion during training and the retention latency are collected.
Testing is conducted approximately 24 hrs. after training. Drug-free animals are placed on the platform in the box in which they will have been trained and the latency to step down onto the grid floor is recorded for one trial as a measure of memory retention.

The target of data set [4] is α3β3γ2 GABAA subtype receptor (Homo sapiens, UniProt P18507+P34903). As to the kind of experiment: oocyte electrophysiology, two electrode voltage-clamp, potentiation of GABA current. The class given is cell-based. The settings on record: Xenopus oocytes, human subunits, GABA EC10. The method, then:
(§1) Assays are carried out as described previously in White and Gurley, 1995 and White, et al., 1995. Xenopus laevis oocytes are enzymatically isolated and injected with non-polyadenylated cRNA for human derived α, β and γ GABAA subunits, respectively. In more preferred embodiments cRNA for the α1β2γ2, α2β3γ2, α3β3γ2, and α5β3γ2 subunit combinations are injected. Only one of these subunit combinations is injected per cell. For each subunit combination, sufficient message is injected to result in current amplitudes of >10 nA when 1 μM GABA is applied. Electrophysiological recordings are carried out using the two electrode voltage-clamp technique at a membrane holding potential of −70 mV.
(§2) Compounds are evaluated against a GABA concentration that evokes <10% (EC10) of the maximal evocable GABA current. Each oocyte is exposed to increasing concentrations of compound in order to evaluate a concentration/effect relationship.
(§3) Specificity of a compound for the Ro15-1788 site is determined following completion of the concentration/effect curve. After washing the oocyte sufficiently to remove previously applied compound, the oocyte is exposed to GABA and 1 μM Ro15-1788, followed by exposure to GABA, 1 μM Ro15-1788, and compound. Percent change due to addition of compound is calculated as described above. Any percent change observed in the presence of Ro15-1788 is subtracted from the percent changes in current amplitude observed in the absence of 1 μM Ro15-1788. These net values are used for the calculation of average activity and EC50 values.
(§4) To evaluate average activity and EC50 values, the concentration/effect data are averaged across cells and fit to the logistic equation. Average values are reported as mean ±standard error.
On the technique in general: Two-electrode voltage clamp holds a large cell at a set potential and records current.

In data set [5] the target is α1β2γ2 GABAA subtype receptor (Homo sapiens, UniProt P14867+P18507). The description is as above. Type of data set: cell-based. The settings on record: Xenopus oocytes, human subunits, GABA EC10; for Emax: read-out: oocyte electrophysiology maximum potentiation (%) α1β2γ2. The method, then:
as §1, §2, §3, §4

Data set [6] deals with α5β3γ2 GABAA subtype receptor (Homo sapiens, UniProt P18507+P31644). The data set is described as above. The class given is cell-based. The settings on record: Xenopus oocytes, human subunits, GABA EC10; for Emax: read-out: oocyte electrophysiology maximum potentiation (%) α5β3γ2. As to the method: as §1, §2, §3, §4
The target of data set [7] is α2β3γ2 GABAA subtype receptor (Homo sapiens, UniProt P18507+P47869). The description is as above. Type of data set: cell-based. Particulars: Xenopus oocytes, human subunits, GABA EC10. As to the method:
as §1, §2, §3, §4

In data set [8] the test system is rats. Put plainly: elevated plus maze. Particulars: rat, IV, statistically significant response (anxiolytic effect). Type of data set: in vivo. As to the method:
The elevated plus maze model capitalizes on rats' innate fear of open, elevated places. The test apparatus is an elevated plus maze consisting of two open arms and two closed arms. A rat will naturally chose to spend more time on the closed arms of the maze than on the open arms but that if an efficacious anxiolytic compound is administered to the rat prior to the test the amount it of time the rat spends in the open arms is increased.
Test compound is administered IV in a 50% PEG (polyethylene glycol) vehicle 5 minutes prior to the test session. A range of compound doses is typically used and 8-10 rats are tested at each dose. The rat is placed in the center of the maze facing one of the open arms. The animal's locomotion is tracked over a five minute test session using photocells interfaced to a computer. The computer measures the number of entries into each arm and the time spent on each arm. An anxiolytic effect in the elevated plus maze model is defined by an increase in the percentage of time spent on the open arms in compound versus vehicle treated animals.

The mark [9] stands for this setting: IV, hypnotic effect (Table VII).

Each structure is given as a SMILES string.

Chain of α5β3γ2 GABAA subtype receptor (P31644 32-462): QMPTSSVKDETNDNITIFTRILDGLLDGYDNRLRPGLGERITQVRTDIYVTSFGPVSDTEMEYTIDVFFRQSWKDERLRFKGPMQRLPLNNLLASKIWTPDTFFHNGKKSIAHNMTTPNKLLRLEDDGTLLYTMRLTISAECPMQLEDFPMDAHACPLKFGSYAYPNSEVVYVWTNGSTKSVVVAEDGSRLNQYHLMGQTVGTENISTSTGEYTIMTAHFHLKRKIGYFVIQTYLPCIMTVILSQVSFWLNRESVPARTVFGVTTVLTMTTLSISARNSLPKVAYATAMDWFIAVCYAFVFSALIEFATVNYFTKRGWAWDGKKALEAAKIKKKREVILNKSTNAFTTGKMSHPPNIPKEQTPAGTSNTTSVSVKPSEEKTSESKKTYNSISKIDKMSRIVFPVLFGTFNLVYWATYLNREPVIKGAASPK
Chain of α5β3γ2 GABAA subtype receptor (P28472 26-473 partner): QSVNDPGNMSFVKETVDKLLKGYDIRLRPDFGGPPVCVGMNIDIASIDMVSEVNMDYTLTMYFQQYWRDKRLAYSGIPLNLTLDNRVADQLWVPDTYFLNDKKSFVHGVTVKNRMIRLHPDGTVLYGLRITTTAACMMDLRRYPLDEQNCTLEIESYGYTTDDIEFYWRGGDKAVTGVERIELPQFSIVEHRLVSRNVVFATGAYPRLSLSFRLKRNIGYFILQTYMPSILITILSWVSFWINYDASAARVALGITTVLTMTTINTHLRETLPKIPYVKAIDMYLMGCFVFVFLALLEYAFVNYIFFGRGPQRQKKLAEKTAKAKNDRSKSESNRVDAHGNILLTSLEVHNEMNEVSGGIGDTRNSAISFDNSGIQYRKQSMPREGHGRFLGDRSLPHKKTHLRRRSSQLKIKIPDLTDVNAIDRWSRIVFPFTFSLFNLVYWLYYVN
Chain of α5β3γ2 GABAA subtype receptor (P18507 40-475): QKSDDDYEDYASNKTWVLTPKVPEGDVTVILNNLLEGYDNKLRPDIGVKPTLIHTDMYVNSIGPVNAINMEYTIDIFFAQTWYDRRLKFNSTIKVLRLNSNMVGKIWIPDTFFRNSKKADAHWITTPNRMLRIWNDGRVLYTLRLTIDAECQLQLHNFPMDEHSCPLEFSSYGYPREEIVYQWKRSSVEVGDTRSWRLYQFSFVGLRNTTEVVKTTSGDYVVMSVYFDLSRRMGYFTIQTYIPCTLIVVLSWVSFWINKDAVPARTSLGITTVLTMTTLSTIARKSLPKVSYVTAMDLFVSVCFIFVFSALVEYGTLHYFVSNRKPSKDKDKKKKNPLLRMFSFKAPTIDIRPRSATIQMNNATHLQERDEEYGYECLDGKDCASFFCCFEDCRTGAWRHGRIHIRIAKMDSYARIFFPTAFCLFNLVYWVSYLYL
Chain of α1β2γ2 GABAA subtype receptor (P14867 28-456): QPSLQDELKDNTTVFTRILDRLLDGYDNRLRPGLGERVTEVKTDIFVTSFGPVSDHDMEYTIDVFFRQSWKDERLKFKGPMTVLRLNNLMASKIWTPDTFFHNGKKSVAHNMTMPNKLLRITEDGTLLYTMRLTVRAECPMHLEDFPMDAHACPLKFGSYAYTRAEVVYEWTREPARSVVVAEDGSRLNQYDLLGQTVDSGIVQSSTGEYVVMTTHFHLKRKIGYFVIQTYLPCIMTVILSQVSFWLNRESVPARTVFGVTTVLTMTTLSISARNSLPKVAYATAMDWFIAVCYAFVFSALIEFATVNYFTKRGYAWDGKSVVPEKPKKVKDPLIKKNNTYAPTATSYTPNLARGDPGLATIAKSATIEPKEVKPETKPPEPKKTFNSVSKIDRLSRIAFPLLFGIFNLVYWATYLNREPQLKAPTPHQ
Chain of α1β2γ2 GABAA subtype receptor (P47870 25-512 partner limits assumed): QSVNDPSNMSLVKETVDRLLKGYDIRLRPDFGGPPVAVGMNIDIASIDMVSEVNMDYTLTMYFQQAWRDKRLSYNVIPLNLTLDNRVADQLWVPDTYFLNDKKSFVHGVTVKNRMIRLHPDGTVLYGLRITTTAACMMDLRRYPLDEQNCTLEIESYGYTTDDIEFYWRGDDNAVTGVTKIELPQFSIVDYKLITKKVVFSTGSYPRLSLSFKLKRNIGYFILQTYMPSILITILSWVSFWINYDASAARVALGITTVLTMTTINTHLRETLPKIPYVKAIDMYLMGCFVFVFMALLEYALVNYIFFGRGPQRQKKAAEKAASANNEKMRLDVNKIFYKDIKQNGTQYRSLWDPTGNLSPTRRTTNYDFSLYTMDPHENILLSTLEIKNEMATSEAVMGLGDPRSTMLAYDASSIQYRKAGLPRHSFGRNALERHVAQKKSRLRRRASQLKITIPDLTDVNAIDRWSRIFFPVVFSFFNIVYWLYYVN
Chain of α1β2γ2 GABAA subtype receptor (P18507 40-475): as the sequence (P18507 40-475) above
Chain of α2β3γ2 GABAA subtype receptor (P47869 29-451): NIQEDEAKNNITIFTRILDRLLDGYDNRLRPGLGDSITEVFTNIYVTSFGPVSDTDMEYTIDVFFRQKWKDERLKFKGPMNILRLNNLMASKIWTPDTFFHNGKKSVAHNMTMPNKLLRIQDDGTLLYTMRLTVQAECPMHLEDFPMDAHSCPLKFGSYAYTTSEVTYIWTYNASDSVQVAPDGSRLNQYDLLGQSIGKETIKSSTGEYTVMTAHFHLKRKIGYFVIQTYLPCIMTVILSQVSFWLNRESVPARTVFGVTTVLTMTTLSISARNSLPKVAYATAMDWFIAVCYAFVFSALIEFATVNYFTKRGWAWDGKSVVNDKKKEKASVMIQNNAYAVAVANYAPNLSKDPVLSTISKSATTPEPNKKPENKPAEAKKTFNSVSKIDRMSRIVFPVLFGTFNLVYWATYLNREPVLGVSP
Chain of α2β3γ2 GABAA subtype receptor (P28472 26-473 partner): as the sequence (P28472 26-473 partner) above
Chain of α2β3γ2 GABAA subtype receptor (P18507 40-475): as the sequence (P18507 40-475) above
Chain of α3β3γ2 GABAA subtype receptor (P34903 29-492): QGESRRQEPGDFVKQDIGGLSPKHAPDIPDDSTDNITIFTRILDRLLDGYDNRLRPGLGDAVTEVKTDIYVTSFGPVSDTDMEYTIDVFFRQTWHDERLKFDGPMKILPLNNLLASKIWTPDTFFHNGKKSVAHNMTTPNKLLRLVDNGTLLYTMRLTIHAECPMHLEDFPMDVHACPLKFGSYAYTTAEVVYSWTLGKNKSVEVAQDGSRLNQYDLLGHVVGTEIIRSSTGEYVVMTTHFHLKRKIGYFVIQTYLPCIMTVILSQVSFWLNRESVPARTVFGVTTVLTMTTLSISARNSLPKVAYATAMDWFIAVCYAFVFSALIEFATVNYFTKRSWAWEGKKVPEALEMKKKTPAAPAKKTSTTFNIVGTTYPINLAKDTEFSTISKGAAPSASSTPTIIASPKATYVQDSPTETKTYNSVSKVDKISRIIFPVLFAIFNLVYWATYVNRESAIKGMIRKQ
Chain of α3β3γ2 GABAA subtype receptor (P28472 26-473 partner): as the sequence (P28472 26-473 partner) above
Chain of α3β3γ2 GABAA subtype receptor (P18507 40-475): as the sequence (P18507 40-475) above

Regarding `COc1ccc(NC(=O)c2c[nH]c3c2C(=O)CC(C)(C)C3)c(F)c1` [compound 6], the Ki in data set [1] turned out to be 11 nM. Moreover, the “spontaneous locomotor activity, minimal efficacious dose” value (from here on “spontaneous locomotor activity”) in the data set with rats [2] (setting [9]) amounted to 0.25 mg/kg. Besides, the “step-down passive avoidance, minimal efficacious dose” value with rats [3] (in vivo, iv, 24 h) turned out to be 4 mg/kg. Also, the “oocyte electrophysiology maximum potentiation (%) α3β3γ2” value in data set [4] is 95%. Besides, the “oocyte electrophysiology maximum potentiation (%) α1β2γ2” value in data set [5] turned out to be 25%. In addition, in data set [6], the “oocyte electrophysiology maximum potentiation (%) α5β3γ2” value turned out to be 42%. For the same compound, the “oocyte electrophysiology maximum potentiation (%) α2β3γ2” value in data set [7] is given as 72%.
On to `O=C(Nc1cccc(F)c1)c1c[nH]c2c(c1=O)CCC2` [compound 5], for which, in data set [1], the Ki was 8.3 nM. The “oocyte electrophysiology maximum potentiation (%) α3β3γ2” value in data set [4] was determined as 44%. Moreover, the Emax in data set [5] and in data set [6] was 0% throughout. Moreover, the “oocyte electrophysiology maximum potentiation (%) α2β3γ2” value in data set [7] is given as 44%. The “elevated plus maze, minimal efficacious dose” value (shortened to “elevated plus maze”) with rats [8] came out at 0.5 mg/kg.
In the case of `O=c1c(-c2ccccc2F)nc2c[nH]c3ccccc3n1-2` [compound 2], the Ki in data set [1] came out at 10 nM. For the same compound, in the data set on rats [2] (in vivo, iv, 15 min), the “spontaneous locomotor activity” value was found to be 4 mg/kg. Besides, the “oocyte electrophysiology maximum potentiation (%) α3β3γ2” value in data set [4] amounted to 39%. Besides, in data set [5], the “oocyte electrophysiology maximum potentiation (%) α1β2γ2” value is on record as 18%. The Emax in data set [6] was -11%. Moreover, the “oocyte electrophysiology maximum potentiation (%) α2β3γ2” value in data set [7] was 40%. In the data set with rats [8], the “elevated plus maze” value turned out to be 0.5 mg/kg.
As to `O=c1c2c[nH]c3ccccc3n-2c(=O)n1-c1ccc(F)cc1` [compound 10], in data set [1], the Ki was 10 nM. In addition, the “cognitive model (step-down passive avoidance), minimal efficacious dose” value in the data set with rats [3] (IV) is 0.25 mg/kg. Further, in data set [4], the “oocyte electrophysiology maximum potentiation (%) α3β3γ2” value is reported as 23%. The Emax in data set [5] is 0%; in data set [6], -27%. In addition, the “oocyte electrophysiology maximum potentiation (%) α2β3γ2” value in data set [7] stood at 22%.
With `c1cc2c(cc1-c1ncc3[nH]c4c(c3n1)CCCC4)OCO2` [compound 9], the Ki in data set [1] worked out at 7.8 nM. For the same compound, the “spontaneous locomotor activity” value in the data set with rats [2] (setting [9]) was found to be 0.5 mg/kg. For the same compound, the “step-down passive avoidance, minimal efficacious dose” value in the data set on rats [3] (in vivo, iv, 24 h) was 0.5 mg/kg. For the same compound, the “oocyte electrophysiology maximum potentiation (%) α3β3γ2” value in data set [4] was 23%. Besides, the “oocyte electrophysiology maximum potentiation (%) α1β2γ2” value in data set [5] was 33%. Also, the Emax in data set [6] is less than 10%. Further, the “oocyte electrophysiology maximum potentiation (%) α2β3γ2” value in data set [7] amounted to 53%.
With `Cc1nnc2n1-c1ccc(Cl)cc1C(c1ccccc1)=NC2` [Alprazolam, reference compound], in data set [1], the Ki turned out to be 3.3 nM. In the data set on rats [2] (IV, sedation as side effect (Tables V and IX)), the “spontaneous locomotor activity” value is listed as 0.125 mg/kg. The “oocyte electrophysiology maximum potentiation (%) α3β3γ2” value in data set [4] is recorded as 774%. Also, the “oocyte electrophysiology maximum potentiation (%) α1β2γ2” value in data set [5] came to 327%. Further, the “oocyte electrophysiology maximum potentiation (%) α5β3γ2” value in data set [6] stood at 206%. Also, the “oocyte electrophysiology maximum potentiation (%) α2β3γ2” value in data set [7] came to 333%. Besides, the “elevated plus maze” value in the data set with rats [8] amounted to 0.0625 mg/kg.
Regarding `Cc1ccc(-c2nc3ccc(C)cn3c2CC(=O)N(C)C)cc1` [Zolpidem, reference compound], the Ki in data set [1] came out at 48 nM. In addition, in the data set on rats [2] (setting [9]), the “spontaneous locomotor activity” value is listed as 0.25 mg/kg. Besides, the “step-down passive avoidance, minimal efficacious dose” value with rats [3] (IV, cognitive impairment side effect (Table VII)) worked out at 0.5 mg/kg. Moreover, in data set [4], the “oocyte electrophysiology maximum potentiation (%) α3β3γ2” value came out at 882%. Further, in data set [5], the “oocyte electrophysiology maximum potentiation (%) α1β2γ2” value is recorded as 263%. The “oocyte electrophysiology maximum potentiation (%) α2β3γ2” value in data set [7] is given as 350%.
As to `O=C(Nc1ccc(OCCO)cc1)c1c[nH]c2c1C(=O)CCC2` [compound 12], in data set [1], the Ki was 5.4 nM. Further, the “cognitive model (step-down passive avoidance), minimal efficacious dose” value in the data set on rats [3] (IV) stood at 0.06 mg/kg. Further, the “oocyte electrophysiology maximum potentiation (%) α3β3γ2” value in data set [4] is 82%. In addition, the “oocyte electrophysiology maximum potentiation (%) α1β2γ2” value in data set [5] stood at 15%. For the same compound, in data set [6], the Emax is -12%. For the same compound, the “oocyte electrophysiology maximum potentiation (%) α2β3γ2” value in data set [7] is listed as 63%.
As to `CC1CC(=O)c2c(C(=O)Nc3ccc(F)cc3)c[nH]c2C1` (stereo not shown) [compound 8], in data set [1], the Ki turned out to be 24 nM. For the same compound, in the data set on rats [2] (setting [9]), the “spontaneous locomotor activity” value is reported as 0.5 mg/kg. In addition, the “oocyte electrophysiology maximum potentiation (%) α3β3γ2” value in data set [4] is on record as 61%. Moreover, the “oocyte electrophysiology maximum potentiation (%) α1β2γ2” value in data set [5] is 17%. Also, in data set [6], the “oocyte electrophysiology maximum potentiation (%) α5β3γ2” value was determined as 16%. In addition, the “oocyte electrophysiology maximum potentiation (%) α2β3γ2” value in data set [7] came to 42%.
As to `O=c1[nH]c2c(n1-c1nc3ccc(F)c(F)c3o1)CCCCC2` [compound 7], the Ki in data set [1] was 3 nM. In the data set on rats [2] (setting [9]), the “spontaneous locomotor activity” value stood at 0.125 mg/kg. Besides, in data set [4], the “oocyte electrophysiology maximum potentiation (%) α3β3γ2” value was determined as 83%. Also, the “oocyte electrophysiology maximum potentiation (%) α1β2γ2” value in data set [5] is 18%. The Emax in data set [6] is -23%. Moreover, in data set [7], the “oocyte electrophysiology maximum potentiation (%) α2β3γ2” value was found to be 51%.

For the origin of these results see patent publication US7060451B2, “Methods for screening GABA-modulatory compounds for specified pharmacological activities” (Neurogen Corporation, priority 1999, dated 2006).
